Source: patent US20250376483A1, “PRODRUGS OF PAN-KRAS INHIBITORS” (Mirati Therapeutics, Inc., priority 2022, published 2025)

Experiments:
[1] = Whole Blood Stability Assay (mouse whole blood); format: in vitro ADME; conditions: CD-1 mouse blood, EDTA-K2, final conc. 2 μM, 37° C., 0-120 min; for half-life at 2 μM: male, fresh whole blood, read-out: Mouse Whole Blood Stability t1/2
Procedure: Whole Blood Stability Assay
This Example illustrates that exemplary compounds of the present invention is cleavage in mouse whole blood.
(§1) Test Compounds and Stock Solutions: Stock Conc. 10 mM; Final Conc. 2 μM
(§2) Test Compound and Control Working Solution Preparation:
• Intermediate solution: 5 μL of compound stock solution (10 mM in dimethyl sulfoxide (DMSO)) were diluted with […] of DMSO (intermediate solution concentration: 1 mM, 100% DMSO) • Propantheline bromide (control) intermediate solution: 5 μL of propantheline stock solution (10 mM in ultra-pure water) were diluted with 45 μL of ultra-pure water (intermediate solution concentration: 1 mM) • Working solution 1: 20 μL of test compound intermediate solution (1 mM) were diluted with 180 μL of 45% ACN/H2O (working solution concentration: […], 40.5% ACN, 10% DMSO) • Working solution 2: 20 μL of control intermediate solution (1 mM) were diluted with 180 μL of 45% ACN/H2O (working solution concentration: 100 μM, 40.5% ACN, 10% DMSO) • Species/Matrix: CD-1 Mouse Blood • No. of Individuals: n>3 Male • Anticoagulant Used: EDTA-K2
• The fresh blood was collected on the day of experiment and pre-warmed in a water bath at 37° C. • Using an Apricot automation workstation, 98 μL/well of blank blood were added to all 96-well reaction plates (Blank, T0, T10, T30, T60 and T120). • An Apricot automation workstation was used to add 2 μL/well of working solution (100 μM) to all reaction plates except Blank (T0, T10, T30, T60 and T120). • All reaction plates containing mixtures of compound and blood were incubated at 37° C. in water bath. • The reaction plates were incubated at 37° C., and timer was started. • At the end of incubation, mixed 100 μL water with 100 μL spiked blood samples, then added 800 μL of stop solution (200 ng/mL tolbutamide and 200 ng/mL labetalol in ACN) to precipitate protein. Mixed thoroughly. • Each plate was sealed and shaken for 20 minutes. • After shaking, each plate was centrifuged at 4000 rpm and 4° C. for 20 minutes. • After centrifugation, an Apricot automation workstation was used to transfer 150 μL of supernatant from each reaction plate to its corresponding bioanalysis plate. • Each bioanalysis plate was submitted to LC-MS/MS analysis.
• The % remaining of test compound after incubation in blood was calculated using following equation:
(§3) [formula] • where PAR is the peak area ratio of analyte versus internal standard (IS) • The appointed incubation time points are TO (0 min), Tn (n=0, 10, 30, 60 and 120 min)

[2] = Plasma Stability Assay (human plasma); format: in vitro ADME; conditions: both sexes; pooled human plasma, heparin, final conc. 2 μM, 37° C., 0-120 min; read-out: Human Plasma Stability t1/2
Procedure: This Example illustrates that exemplary compounds of the present invention is cleavage in human plasma.
as §1, §2
• Test compound intermediate solution: 10 μL of compound stock solution (10 mM in dimethyl sulfoxide (DMSO)) were diluted with 90 μL of DMSO (intermediate solution concentration: 1 mM, 100% DMSO) • Control intermediate solution: 10 μL of control stock solution (10 mM in dimethyl sulfoxide (DMSO)) were diluted with 90 μL of DMSO (intermediate solution concentration: 1 mM, 100% DMSO) • Species/Matrix: Human Plasma • No. of Individuals: 3 Male & 3 Female • Anticoagulant Used: Heparin
• The pooled frozen plasma was thawed in a water bath at 37° C. prior to experiment. Plasma was centrifuged at 4000 rpm for 5 min and the clots were removed if any. • Using an Apricot automation workstation, 98 μL/well of blank plasma were added to all 96-well reaction plates. (Blank, T0, T10, T30, T60 and T120) • An Apricot automation workstation was used to add 2 μL/well of working solution (100 μM) to all reaction plates except Blank. (T0, T10, T30, T60 and T120) • All reaction plates containing mixtures of compound and plasma were incubated at 37° C. in water bath. • The reaction plates were incubated at 37° C., and timer was started. • At the end of incubation, added 500 μL of stop solution (200 ng/mL tolbutamide and 200 ng/mL labetalol in ACN) to precipitate protein. Mixed thoroughly. • Each plate was sealed and shaken for 20 minutes. • After shaking, each plate was centrifuged at 4000 rpm and 4° C. for 20 minutes • After centrifugation, an Apricot automation workstation was used to transfer 50 μL supernatant into 100 μL HPLC water. • Each bioanalysis plate was sealed and shaken for 10 minutes prior to LC-MS/MS analysis Data Analysis • The % remaining of test compound after incubation in blood was calculated using following equation:
as §3

SMILES | half-life at 2 μM [1] [min] | half-life at 2 μM [2] [min] | Mouse Whole Blood Stability t1/2 [1] [min]
CCc1c(F)ccc2cc(OC(C)=O)cc(N3CCc4c(nc(OC[C@@]56CCCN5C[C@H](F)C6)nc4N4CCC[C@]5(C4)NC(=O)NC5=O)C3)c12 [Example 27, 4-(4-((R)-2,4-dioxo-1,3,7-triazaspiro[4.5]decan-7-yl)-2-(((2R,7aS)-2-fluorotetrahydro-1H-pyrrolizin-7a(5H)-yl)methoxy)-5,8-dihydropyrido[3,4-d]pyrimidin-7(6H)-yl)-5-ethyl-6-fluoronaphthalen-2-yl acetate] | 2 | 12 | –
CCc1c(F)ccc2cc(OC(=O)OC)cc(N3CCc4c(nc(OC[C@@]56CCCN5C[C@H](F)C6)nc4N4CCC[C@]5(C4)NC(=O)NC5=O)C3)c12 [Example 30, 4-(4-((R)-2,4-dioxo-1,3,7-triazaspiro[4.5]decan-7-yl)-2-(((2R,7aS)-2-fluorotetrahydro-1H-pyrrolizin-7a(5H)-yl)methoxy)-5,8-dihydropyrido[3,4-d]pyrimidin-7(6H)-yl)-5-ethyl-6-fluoronaphthalen-2-yl methyl carbonate] | – | 27 | 1
CCc1c(F)ccc2cc(OC(=O)C3CC3)cc(N3CCc4c(nc(OC[C@@]56CCCN5C[C@H](F)C6)nc4N4CCC[C@]5(C4)NC(=O)NC5=O)C3)c12 [Example 32, 4-(4-((R)-2,4-dioxo-1,3,7-triazaspiro[4.5]decan-7-yl)-2-(((2R,7aS)-2-fluorotetrahydro-1H-pyrrolizin-7a(5H)-yl)methoxy)-5,8-dihydropyrido[3,4-d]pyrimidin-7(6H)-yl)-5-ethyl-6-fluoronaphthalen-2-yl cyclopropanecarboxylate] | 2 | 51 | –
CCc1c(F)ccc2cc(OC(=O)C(C)C)cc(N3CCc4c(nc(OC[C@@]56CCCN5C[C@H](F)C6)nc4N4CCC[C@]5(C4)NC(=O)NC5=O)C3)c12 [Example 34, 4-(4-((R)-2,4-dioxo-1,3,7-triazaspiro[4.5]decan-7-yl)-2-(((2R,7aS)-2-fluorotetrahydro-1H-pyrrolizin-7a(5H)-yl)methoxy)-5,8-dihydropyrido[3,4-d]pyrimidin-7(6H)-yl)-5-ethyl-6-fluoronaphthalen-2-yl isobutyrate] | – | 210 | 1
CCc1c(F)ccc2cc(OC(=O)N(C)C)cc(N3CCc4c(nc(OC[C@@]56CCCN5C[C@H](F)C6)nc4N4CCC[C@]5(C4)NC(=O)NC5=O)C3)c12 [Example 35, 4-(4-((R)-2,4-dioxo-1,3,7-triazaspiro[4.5]decan-7-yl)-2-(((2R,7aS)-2-fluorotetrahydro-1H-pyrrolizin-7a(5H)-yl)methoxy)-5,8-dihydropyrido[3,4-d]pyrimidin-7(6H)-yl)-5-ethyl-6-fluoronaphthalen-2-yl dimethylcarbamate] | > 289 | > 289 | –

Next, values leading:

half-life at 2 μM [1] [min] | half-life at 2 μM [2] [min] | Mouse Whole Blood Stability t1/2 [1] [min] | SMILES
> 289 | > 289 | – | CCc1c(F)ccc2cc(OCOC(=O)N(C)C)cc(-c3ncc4c(N5C[C@@H]6C[C@H](C5)[C@H](O)C6)nc(OC[C@@]56CCCN5C[C@H](F)C6)nc4c3F)c12 [Example 20, ((5-ethyl-6-fluoro-4-(8-fluoro-2-(((2R,7aS)-2-fluorotetrahydro-1H-pyrrolizin-7a(5H)-yl)methoxy)-4-((1R,5R,6R)-6-hydroxy-3-azabicyclo[3.2.1]octan-3-yl)pyrido[4,3-d]pyrimidin-7-yl)naphthalen-2-yl)oxy)methyl dimethylcarbamate]
– | 41 | 1 | CCc1c(F)ccc2cc(OC(=O)C3CCCCC3)cc(-c3ncc4c(N5C[C@@H]6C[C@H](C5)[C@H](O)C6)nc(OC[C@@]56CCCN5C[C@H](F)C6)nc4c3F)c12 [Example 21, 5-ethyl-6-fluoro-4-(8-fluoro-2-(((2R,7aS)-2-fluorotetrahydro-1H-pyrrolizin-7a(5H)-yl)methoxy)-4-((1R,5R,6R)-6-hydroxy-3-azabicyclo[3.2.1]octan-3-yl)pyrido[4,3-d]pyrimidin-7-yl)naphthalen-2-yl cyclohexanecarboxylate]
> 289 | > 289 | – | CCc1c(F)ccc2cc(OC(C)OC(=O)N(C)C)cc(-c3ncc4c(N5C[C@@H]6C[C@H](C5)[C@H](O)C6)nc(OC[C@@]56CCCN5C[C@H](F)C6)nc4c3F)c12 (stereo partly drawn) [Example 22, 1-((5-ethyl-6-fluoro-4-(8-fluoro-2-(((2R,7aS)-2-fluorotetrahydro-1H-pyrrolizin-7a(5H)-yl)methoxy)-4-((1R,5R,6R)-6-hydroxy-3-azabicyclo[3.2.1]octan-3-yl)pyrido[4,3-d]pyrimidin-7-yl)naphthalen-2-yl)oxy)ethyl dimethylcarbamate]
– | 65 | 1 | CCCCCCCC(=O)Oc1cc(-c2ncc3c(N4C[C@@H]5C[C@H](C4)[C@H](O)C5)nc(OC[C@@]45CCCN4C[C@H](F)C5)nc3c2F)c2c(CC)c(F)ccc2c1 [Example 24, 5-ethyl-6-fluoro-4-(8-fluoro-2-(((2R,7aS)-2-fluorotetrahydro-1H-pyrrolizin-7a(5H)-yl)methoxy)-4-((1R,5R,6R)-6-hydroxy-3-azabicyclo[3.2.1]octan-3-yl)pyrido[4,3-d]pyrimidin-7-yl)naphthalen-2-yl octanoate]
– | 77 | 1 | CCCCCCCCCC(=O)Oc1cc(-c2ncc3c(N4C[C@@H]5C[C@H](C4)[C@H](O)C5)nc(OC[C@@]45CCCN4C[C@H](F)C5)nc3c2F)c2c(CC)c(F)ccc2c1 [Example 25, 5-ethyl-6-fluoro-4-(8-fluoro-2-(((2R,7aS)-2-fluorotetrahydro-1H-pyrrolizin-7a(5H)-yl)methoxy)-4-((1R,5R,6R)-6-hydroxy-3-azabicyclo[3.2.1]octan-3-yl)pyrido[4,3-d]pyrimidin-7-yl)naphthalen-2-yl decanoate]
2 | 33 | – | CCC(=O)Oc1cc(N2CCc3c(nc(OC[C@@]45CCCN4C[C@H](F)C5)nc3N3CCC[C@]4(C3)NC(=O)NC4=O)C2)c2c(CC)c(F)ccc2c1 [Example 29, 4-(4-((R)-2,4-dioxo-1,3,7-triazaspiro[4.5]decan-7-yl)-2-(((2R,7aS)-2-fluorotetrahydro-1H-pyrrolizin-7a(5H)-yl)methoxy)-5,8-dihydropyrido[3,4-d]pyrimidin-7(6H)-yl)-5-ethyl-6-fluoronaphthalen-2-yl propionate]
< 5 | 62 | – | CCCC(=O)Oc1cc(N2CCc3c(nc(OC[C@@]45CCCN4C[C@H](F)C5)nc3N3CCC[C@]4(C3)NC(=O)NC4=O)C2)c2c(CC)c(F)ccc2c1 [Example 33, 4-(4-((R)-2,4-dioxo-1,3,7-triazaspiro[4.5]decan-7-yl)-2-(((2R,7aS)-2-fluorotetrahydro-1H-pyrrolizin-7a(5H)-yl)methoxy)-5,8-dihydropyrido[3,4-d]pyrimidin-7(6H)-yl)-5-ethyl-6-fluoronaphthalen-2-yl butyrate]
